Data taken from article PMC7567103 (Nature Communications, 2020).

What was measured:
Type in all cases: cell-based
Details in all cases: mean ± SEM, n ≥ 3
GHRHR L119A = molecular target: T1, GHRHR L119A (Homo sapiens, UniProt Q02643, L119A); experiment: cAMP accumulation, L119A
T1 construct: GHRHR(23-423)-; HA signal peptide (replaces native signal M1-G22) (N); expressed in transfected cells; host or cells: HEK 293T, pcDNA3.1, transient
Source text: (§1) Fig. 2 Molecular recognition of GHRH by GHRHR and comparison of that with LA-PTH–PTH1R and GLP-1–GLP-1R. a Detailed interaction between GHRH and the TMD pocket of GHRHR with hydrogen bonds shown as dotted lines. b, c Pairwise comparison of GHRH bound to GHRHR with GLP-1 and LA-PTH in complex with their corresponding receptors, showing the relative positions of peptide ligands. Lime green, GHRHR; blue, GHRH; red, PTH1R and LA-PTH; purple, GLP-1R and GLP-1. d–f The effects of mutation in the ligand-binding pocket on cAMP accumulation. cAMP levels were measured in wild-type (WT) receptor and alanine mutants in ECL1, 2, and 3 (d), TM1, 2, and 3 (e), and TM5, 6, and 7 (f). cAMP signals were normalized to the maximum response of WT and concentration–response curves were analyzed using a three-parameter logistic equation. Data shown are means ± S.E.M. of at least three independent experiments (n = 3–5), conducted in triplicate. Source data are provided as a Source data file.
(§2) GHRH-stimulated cAMP accumulation was measured by a LANCE Ultra cAMP kit (PerkinElmer). […] After 1 h RT incubation, TR-FRET signals (excitation: 320 nm, emission: 615 and 665 nm) were measured by an EnVision (PerkinElmer).

GHRHR V179A = molecular target: T2, GHRHR V179A (Homo sapiens, UniProt Q02643, V179A); experiment: cAMP accumulation, V179A
T2 construct: GHRHR(23-423)-; HA signal peptide (replaces native signal M1-G22) (N); expressed in transfected cells; host or cells: HEK 293T, pcDNA3.1, transient
Source text: as §1, §2

GHRHR K182A = molecular target: T3, GHRHR K182A (Homo sapiens, UniProt Q02643, K182A); experiment: cAMP accumulation, K182A
T3 construct: GHRHR(23-423)-; HA signal peptide (replaces native signal M1-G22) (N); expressed in transfected cells; host or cells: HEK 293T, pcDNA3.1, transient
Source text: as §1, §2

GHRHR F187A = molecular target: T4, GHRHR F187A (Homo sapiens, UniProt Q02643, F187A); experiment: cAMP accumulation, F187A
T4 construct: GHRHR(23-423)-; HA signal peptide (replaces native signal M1-G22) (N); expressed in transfected cells; host or cells: HEK 293T, pcDNA3.1, transient
Source text: as §1, §2

GHRHR T192A = molecular target: T5, GHRHR T192A (Homo sapiens, UniProt Q02643, T192A); experiment: cAMP accumulation, T192A
T5 construct: GHRHR(23-423)-; HA signal peptide (replaces native signal M1-G22) (N); expressed in transfected cells; host or cells: HEK 293T, pcDNA3.1, transient
Source text: as §1, §2

GHRHR D193A = molecular target: T6, GHRHR D193A (Homo sapiens, UniProt Q02643, D193A); experiment: cAMP accumulation, D193A
T6 construct: GHRHR(23-423)-; HA signal peptide (replaces native signal M1-G22) (N); expressed in transfected cells; host or cells: HEK 293T, pcDNA3.1, transient
Source text: as §1, §2

GHRHR H194A = molecular target: T7, GHRHR H194A (Homo sapiens, UniProt Q02643, H194A); experiment: cAMP accumulation, H194A
T7 construct: GHRHR(23-423)-; HA signal peptide (replaces native signal M1-G22) (N); expressed in transfected cells; host or cells: HEK 293T, pcDNA3.1, transient
Source text: as §1, §2

GHRHR C195A = molecular target: T8, GHRHR C195A (Homo sapiens, UniProt Q02643, C195A); experiment: cAMP accumulation, C195A
T8 construct: GHRHR(23-423)-; HA signal peptide (replaces native signal M1-G22) (N); expressed in transfected cells; host or cells: HEK 293T, pcDNA3.1, transient
Source text: as §1, §2

GHRHR S209A = molecular target: T9, GHRHR S209A (Homo sapiens, UniProt Q02643, S209A); experiment: cAMP accumulation, S209A
T9 construct: GHRHR(23-423)-; HA signal peptide (replaces native signal M1-G22) (N); expressed in transfected cells; host or cells: HEK 293T, pcDNA3.1, transient
Source text: as §1, §2

GHRHR H210A = molecular target: T10, GHRHR H210A (Homo sapiens, UniProt Q02643, H210A); experiment: cAMP accumulation, H210A
T10 construct: GHRHR(23-423)-; HA signal peptide (replaces native signal M1-G22) (N); expressed in transfected cells; host or cells: HEK 293T, pcDNA3.1, transient
Source text: as §1, §2

GHRHR T213A = molecular target: T11, GHRHR T213A (Homo sapiens, UniProt Q02643, T213A); experiment: cAMP accumulation, T213A
T11 construct: GHRHR(23-423)-; HA signal peptide (replaces native signal M1-G22) (N); expressed in transfected cells; host or cells: HEK 293T, pcDNA3.1, transient
Source text: as §1, §2

GHRHR A271F = molecular target: T12, GHRHR A271F (Homo sapiens, UniProt Q02643, A271F); experiment: cAMP accumulation, A271F
T12 construct: GHRHR(23-423)-; HA signal peptide (replaces native signal M1-G22) (N); expressed in transfected cells; host or cells: HEK 293T, pcDNA3.1, transient
Source text: as §1, §2

GHRHR D274A = molecular target: T13, GHRHR D274A (Homo sapiens, UniProt Q02643, D274A); experiment: cAMP accumulation, D274A
T13 construct: GHRHR(23-423)-; HA signal peptide (replaces native signal M1-G22) (N); expressed in transfected cells; host or cells: HEK 293T, pcDNA3.1, transient
Source text: as §1, §2

GHRHR W282A = molecular target: T14, GHRHR W282A (Homo sapiens, UniProt Q02643, W282A); experiment: cAMP accumulation, W282A
T14 construct: GHRHR(23-423)-; HA signal peptide (replaces native signal M1-G22) (N); expressed in transfected cells; host or cells: HEK 293T, pcDNA3.1, transient
Source text: as §1, §2

GHRHR L354A = molecular target: T15, GHRHR L354A (Homo sapiens, UniProt Q02643, L354A); experiment: cAMP accumulation, L354A
T15 construct: GHRHR(23-423)-; HA signal peptide (replaces native signal M1-G22) (N); expressed in transfected cells; host or cells: HEK 293 T
Source text: as §1, §2

GHRHR R357A = molecular target: T16, GHRHR R357A (Homo sapiens, UniProt Q02643, R357A); experiment: cAMP accumulation, R357A
T16 construct: GHRHR(23-423)-; HA signal peptide (replaces native signal M1-G22) (N); expressed in transfected cells; host or cells: HEK 293 T
Source text: as §1, §2

GHRHR L358A = molecular target: T17, GHRHR L358A (Homo sapiens, UniProt Q02643, L358A); experiment: cAMP accumulation, L358A
T17 construct: GHRHR(23-423)-; HA signal peptide (replaces native signal M1-G22) (N); expressed in transfected cells; host or cells: HEK 293 T
Source text: as §1, §2

GHRHR E361A = molecular target: T18, GHRHR E361A (Homo sapiens, UniProt Q02643, E361A); experiment: cAMP accumulation, E361A
T18 construct: GHRHR(23-423)-; HA signal peptide (replaces native signal M1-G22) (N); expressed in transfected cells; host or cells: HEK 293 T
Source text: as §1, §2

GHRHR L362A = molecular target: T19, GHRHR L362A (Homo sapiens, UniProt Q02643, L362A); experiment: cAMP accumulation, L362A
T19 construct: GHRHR(23-423)-; HA signal peptide (replaces native signal M1-G22) (N); expressed in transfected cells; host or cells: HEK 293 T
Source text: as §1, §2

T18 sequence (Q02643 23-423 E361A): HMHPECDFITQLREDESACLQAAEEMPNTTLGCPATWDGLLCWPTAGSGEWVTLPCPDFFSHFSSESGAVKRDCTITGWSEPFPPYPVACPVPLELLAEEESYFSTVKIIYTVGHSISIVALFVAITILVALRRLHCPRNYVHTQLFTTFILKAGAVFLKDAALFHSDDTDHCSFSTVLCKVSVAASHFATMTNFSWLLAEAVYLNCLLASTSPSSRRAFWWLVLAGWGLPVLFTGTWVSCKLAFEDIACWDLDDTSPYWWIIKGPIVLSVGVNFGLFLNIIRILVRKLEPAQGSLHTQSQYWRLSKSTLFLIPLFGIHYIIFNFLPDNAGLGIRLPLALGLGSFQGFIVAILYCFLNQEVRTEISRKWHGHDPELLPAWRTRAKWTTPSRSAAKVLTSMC
T4 sequence (Q02643 23-423 F187A): as the sequence (Q02643 23-423 E361A) above, with F165A, A339E counted along it
T3 sequence (Q02643 23-423 K182A): as the sequence (Q02643 23-423 E361A) above, with K160A, A339E counted along it
T17 sequence (Q02643 23-423 L358A): as the sequence (Q02643 23-423 E361A) above, with L336A, A339E counted along it
T7 sequence (Q02643 23-423 H194A): as the sequence (Q02643 23-423 E361A) above, with H172A, A339E counted along it
T2 sequence (Q02643 23-423 V179A): as the sequence (Q02643 23-423 E361A) above, with V157A, A339E counted along it
T14 sequence (Q02643 23-423 W282A): as the sequence (Q02643 23-423 E361A) above, with W260A, A339E counted along it
T9 sequence (Q02643 23-423 S209A): as the sequence (Q02643 23-423 E361A) above, with S187A, A339E counted along it
T5 sequence (Q02643 23-423 T192A): as the sequence (Q02643 23-423 E361A) above, with T170A, A339E counted along it
T12 sequence (Q02643 23-423 A271F): as the sequence (Q02643 23-423 E361A) above, with A249F, A339E counted along it
T11 sequence (Q02643 23-423 T213A): as the sequence (Q02643 23-423 E361A) above, with T191A, A339E counted along it
T15 sequence (Q02643 23-423 L354A): as the sequence (Q02643 23-423 E361A) above, with L332A, A339E counted along it
T8 sequence (Q02643 23-423 C195A): as the sequence (Q02643 23-423 E361A) above, with C173A, A339E counted along it
T13 sequence (Q02643 23-423 D274A): as the sequence (Q02643 23-423 E361A) above, with D252A, A339E counted along it
T19 sequence (Q02643 23-423 L362A): as the sequence (Q02643 23-423 E361A) above, with A339E, L340A counted along it
T16 sequence (Q02643 23-423 R357A): as the sequence (Q02643 23-423 E361A) above, with R335A, A339E counted along it
T1 sequence (Q02643 23-423 L119A): as the sequence (Q02643 23-423 E361A) above, with L97A, A339E counted along it
T10 sequence (Q02643 23-423 H210A): as the sequence (Q02643 23-423 E361A) above, with H188A, A339E counted along it
T6 sequence (Q02643 23-423 D193A): as the sequence (Q02643 23-423 E361A) above, with D171A, A339E counted along it

Compound `CC[C@H](C)[C@H](NC(=O)[C@H](C)NC(=O)[C@H](CC(=O)O)NC(=O)[C@H](C)NC(=O)[C@@H](N)Cc1ccc(O)cc1)C(=O)N[C@@H](Cc1ccccc1)C(=O)N[C@H](C(=O)N[C@@H](CC(N)=O)C(=O)N[C@@H](CO)C(=O)N[C@@H](Cc1ccc(O)cc1)C(=O)N[C@@H](CCCNC(=N)N)C(=O)N[C@@H](CCCCN)C(=O)N[C@H](C(=O)N[C@@H](CC(C)C)C(=O)NCC(=O)N[C@@H](CCC(N)=O)C(=O)N[C@@H](CC(C)C)C(=O)N[C@@H](CO)C(=O)N[C@@H](C)C(=O)N[C@@H](CCCNC(=N)N)C(=O)N[C@@H](CCCCN)C(=O)N[C@@H](CC(C)C)C(=O)N[C@@H](CC(C)C)C(=O)N[C@@H](CCC(N)=O)C(=O)N[C@@H](CC(=O)O)C(=O)N[C@H](C(=O)N[C@@H](CCSC)C(=O)N[C@@H](CO)C(=O)N[C@@H](CCCNC(=N)N)C(=O)N[C@@H](CCC(N)=O)C(=O)N[C@@H](CCC(N)=O)C(=O)NCC(=O)N[C@@H](CCC(=O)O)C(=O)N[C@@H](CO)C(=O)N[C@@H](CC(N)=O)C(=O)N[C@@H](CCC(N)=O)C(=O)N[C@@H](CCC(=O)O)C(=O)N[C@@H](CCCNC(=N)N)C(=O)NCC(=O)N[C@@H](C)C(=O)N[C@@H](CCCNC(=N)N)C(=O)N[C@@H](C)C(=O)N[C@@H](CCCNC(=N)N)C(=O)N[C@@H](CC(C)C)C(N)=O)[C@@H](C)CC)C(C)C)[C@@H](C)O` [GHRH, Growth hormone-releasing hormone] has an EC50 (GHRHR L119A) of 0.724 nM, an Emax (GHRHR L119A) of 98.67±1.48 % WT and an EC50 (GHRHR V179A) of 0.288 nM. For the same compound, the Emax (GHRHR V179A) was 101.24±3.06 % WT, the EC50 (GHRHR K182A) was 39.8 nM and the Emax (GHRHR K182A) was 100.02±1.40 % WT. It also gave an EC50 (GHRHR F187A) of 1.15 nM, an Emax (GHRHR F187A) of 101.68±1.52 % WT and an EC50 (GHRHR T192A) of 0.229 nM. It also gave an Emax (GHRHR T192A) of 103.11±1.18 % WT, an EC50 (GHRHR D193A) of 0.115 nM and an Emax (GHRHR D193A) of 101.42±1.02 % WT. For the same compound, the EC50 (GHRHR H194A) was 0.251 nM, the Emax (GHRHR H194A) was 98.01±1.25 % WT and the EC50 (GHRHR C195A) was 21.4 nM. For the same compound, the Emax (GHRHR C195A) was 95.22±1.05 % WT, the EC50 (GHRHR S209A) was 0.11 nM and the Emax (GHRHR S209A) was 100.52±0.43 % WT. It also gave an EC50 (GHRHR H210A) of 1 nM, an Emax (GHRHR H210A) of 99.66±1.10 % WT and an EC50 (GHRHR T213A) of 0.447 nM. The Emax (GHRHR T213A) was 91.48±4.55 % WT, the EC50 (GHRHR A271F) was 0.186 nM and the Emax (GHRHR A271F) was 103.70±0.64 % WT. The EC50 (GHRHR D274A) was 0.468 nM, the Emax (GHRHR D274A) was 99.78±2.32 % WT and the EC50 (GHRHR W282A) was 13.2 nM. For the same compound, the Emax (GHRHR W282A) was 101.88±5.62 % WT, the EC50 (GHRHR L354A) was 0.182 nM and the Emax (GHRHR L354A) was 98.79±1.84 % WT. It also gave an EC50 (GHRHR R357A) of 135 nM, an Emax (GHRHR R357A) of 60.05±5.19 % WT and an EC50 (GHRHR L358A) of 1.05 nM. It also gave an Emax (GHRHR L358A) of 100.3±1.21 % WT, an EC50 (GHRHR E361A) of 1.05 nM and an Emax (GHRHR E361A) of 18.75±4.38 % WT. For the same compound, the EC50 (GHRHR L362A) was 0.112 nM and the Emax (GHRHR L362A) was 103.97±0.47 % WT.
